In patent US11033547B2, “Carboxamide-pyrimidine derivatives as SHP2 antagonists” (Merck Patent GmbH, priority 2019, dated 2021):
pIC50: −log10 of the molar value.

The compounds below were run against Full length SHP2 protein (Recombinant Human SHP-2) (Homo sapiens, UniProt Q06124) (assay: SHP2 biochemical assay (DiFMUP substrate, activating peptide IRSI_2pY)). Conditions: DiFMUP substrate, activating peptide IRSI_2pY, 60 min at RT; read-out: SHP-2 Biochemical assay IC50.
Method: The inhibition of SHP2 by compounds of the invention was monitored using the surrogate substrate DiFMUP after protein activation by a peptide bearing two appropriately spaced phosphotyrosine. […] The generation of the DiFMU product by activated SHP2 was monitored through Fluorescence measurement with a PerkinElmer Envision reader.
The inhibitor dose response curves were analyzed with Genedata Screener.

Full length SHP2 protein (Recombinant Human SHP-2), sequence (Q06124 2-593 limits assumed): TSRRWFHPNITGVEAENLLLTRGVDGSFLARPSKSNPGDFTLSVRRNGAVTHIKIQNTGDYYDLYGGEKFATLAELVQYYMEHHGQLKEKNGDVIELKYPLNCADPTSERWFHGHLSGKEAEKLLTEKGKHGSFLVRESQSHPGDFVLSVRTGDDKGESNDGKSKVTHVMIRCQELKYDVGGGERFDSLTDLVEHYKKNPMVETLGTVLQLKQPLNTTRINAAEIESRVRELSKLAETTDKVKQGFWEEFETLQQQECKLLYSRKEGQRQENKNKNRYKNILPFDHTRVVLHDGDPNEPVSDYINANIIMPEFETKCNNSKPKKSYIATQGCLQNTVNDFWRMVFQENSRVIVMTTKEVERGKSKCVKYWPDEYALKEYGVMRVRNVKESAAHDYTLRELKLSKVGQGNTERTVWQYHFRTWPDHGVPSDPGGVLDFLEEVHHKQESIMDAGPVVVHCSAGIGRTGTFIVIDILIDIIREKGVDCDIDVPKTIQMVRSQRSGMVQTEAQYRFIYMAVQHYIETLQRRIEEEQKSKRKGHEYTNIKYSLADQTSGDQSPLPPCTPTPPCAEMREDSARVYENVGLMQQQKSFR

Structure (SMILES)	pIC50
NC(=O)c1nc(N[C@@H]2CCNC[C@@H]2F)nc(N)c1-c1cccc(Cl)c1Cl (atropisomer, axis not shown; (M)) [Compound 64, (5M)-6-amino-5-(2,3-dichlorophenyl)-2-{[(3S,4R)-3-fluoropiperidin-4-yl]amino}-pyrimidine-4-carboxamide]	5.00
CC1(N)CCN(c2nc(Cl)c(-c3cccc(Cl)c3Cl)c(C(N)=O)n2)CC1 (atropisomer, axis not shown; (M)) [Compound 78, (4M)-2-(4-amino-4-methylpiperidin-1-yl)-6-chloro-5-(2,3-dichlorophenyl)-pyrimidine-4-carboxamide]	5.85
Cc1nc(N[C@H]2CCC[C@@H](N)C2)nc(C(N)=O)c1-c1cccc(Cl)c1Cl (atropisomer, axis not shown; (M)) [Compound 87, (4M)-2-{[(1S,3R)-3-aminocyclohexyl]amino}-5-(2,3-dichlorophenyl)-6-methylpyrimidine-4-carboxamide]	5.92
NC[C@@]12CCC[C@@H]1CN(c1nc(N)c(-c3cccc(Cl)c3Cl)c(C(N)=O)n1)C2 (atropisomer, axis not shown; (M)) [Compound 99, (5M)-2-[(3aR,6aS)-3a-(aminomethyl)octahydrocyclopenta[c]pyrrol-2-yl]-6-amino-5-(2,3-dichlorophenyl)pyrimidine-4-carboxamide]	5.43
NC(=O)c1nc(N2CCC(N)(C(F)F)CC2)nc(N)c1-c1cccc(Cl)c1Cl (atropisomer, axis not shown; (M)) [Compound 107, (5M)-6-amino-2-[4-amino-4-(difluoromethyl)piperidin-1-yl]-5-(2,3-dichlorophenyl)-pyrimidine-4-carboxamide]	5.49
C[C@]1(N)CCCN(c2nc(N)c(-c3cccc(Cl)c3Cl)c(C(N)=O)n2)CC1 (atropisomer, axis not shown; (M)) [Compound 110, (5M)-6-amino-2-[(4S)-4-amino-4-methylazepan-1-yl]-5-(2,3-dichlorophenyl)-pyrimidine-4-carboxamide]	5.36
COc1c(F)ccc(-c2c(C)nc(N3CCC(C)(N)CC3)nc2C(N)=O)c1Cl (atropisomer, axis not shown; (M)) [Compound 115, (4M)-2-(4-amino-4-methylpiperidin-1-yl)-5-(2-chloro-4-fluoro-3-methoxyphenyl)-6-methylpyrimidine-4-carboxamide]	6.24
Cc1nc(N2CCC(C)(N)CC2)nc(C(N)=O)c1-c1cccc(Cl)c1Cl (atropisomer, axis not shown; (P)) [Compound 31, (4P)-2-(4-amino-4-methylpiperidin-1-yl)-5-(2,3-dichlorophenyl)-6-methylpyrimidine-4-carboxamide]	5.10
Cc1nc(N2CCOC[C@H]2CN)nc(C(N)=O)c1-c1cccc(Cl)c1Cl (atropisomer, axis not shown; (P)) [Compound 47, (4P)-2-[(3R)-3-(aminomethyl)morpholin-4-yl]-5-(2,3-dichlorophenyl)-6-methylpyrimidine-4-carboxamide]	< 5.00
Cc1nc(N2CCOC[C@@H]2CN)nc(C(N)=O)c1-c1cccc(Cl)c1Cl (atropisomer, axis not shown; (P)) [Compound 48, (4P)-2-[(3S)-3-(aminomethyl)morpholin-4-yl]-5-(2,3-dichlorophenyl)-6-methylpyrimidine-4-carboxamide]	< 5.00
Cc1nc(N[C@@H]2CCC[C@H](N)C2)nc(C(N)=O)c1-c1cccc(Cl)c1Cl (atropisomer, axis not shown; (P)) [Compound 89, (4P)-2-{[(1R,3S)-3-aminocyclohexyl]amino}-5-(2,3-dichlorophenyl)-6-methylpyrimidine-4-carboxamide]	4.89
Cc1nc(N[C@H]2CCC[C@@H](N)C2)nc(C(N)=O)c1-c1cccc(Cl)c1Cl (atropisomer, axis not shown; (P)) [Compound 90, (4P)-2-{[(1S,3R)-3-aminocyclohexyl]amino}-5-(2,3-dichlorophenyl)-6-methylpyrimidine-4-carboxamide]	< 5.00
NC(=O)c1nc(N2CCC(N)(C(F)F)CC2)nc(N)c1-c1cccc(Cl)c1Cl (atropisomer, axis not shown; (P)) [Compound 106, (5P)-6-amino-2-[4-amino-4-(difluoromethyl)piperidin-1-yl]-5-(2,3-dichlorophenyl)-pyrimidine-4-carboxamide]	4.82
C[C@]1(N)CCCN(c2nc(N)c(-c3cccc(Cl)c3Cl)c(C(N)=O)n2)CC1 (atropisomer, axis not shown; (P)) [Compound 108, (5P)-6-amino-2-[(4S)-4-amino-4-methylazepan-1-yl]-5-(2,3-dichlorophenyl)-pyrimidine-4-carboxamide]	5.89
COc1c(F)ccc(-c2c(C)nc(N3CCC(C)(N)CC3)nc2C(N)=O)c1Cl (atropisomer, axis not shown; (P)) [Compound 116, (4P)-2-(4-amino-4-methylpiperidin-1-yl)-5-(2-chloro-4-fluoro-3-methoxyphenyl)-6-methylpyrimidine-4-carboxamide]	< 5.00
NC(=O)c1nc(N2C[C@H]3CCCCC[C@@H](C2)C3N)nc(N)c1-c1cccc(Cl)c1Cl (single isomer, unassigned) [Compound 14]	5.06
Cc1nc(N2CCC3(CC2)CO[C@@H](C)[C@H]3N)nc(C(N)=O)c1-c1cccc(Cl)c1Cl (single isomer, unassigned) [Compound 94]	5.59
NC[C@@]12CCCC[C@@H]1CN(c1nc(N)c(-c3cccc(Cl)c3Cl)c(C(N)=O)n1)C2 (single isomer, unassigned) [Compound 102]	4.77
NC[C@]12CCCC[C@H]1CN(c1nc(N)c(-c3cccc(Cl)c3Cl)c(C(N)=O)n1)C2 (single isomer, unassigned) [Compound 103]	5.25
NC[C@]12CCC[C@H]1CN(c1nc(N)c(-c3cccc(Cl)c3Cl)c(C(N)=O)n1)C2 (single isomer, unassigned) [Compound 105]	5.00
Cc1nc(N2CCC3(CCC[C@H]3N)CC2)nc(C(N)=O)c1-c1cccc(Cl)c1Cl (single isomer, unassigned) [Compound 113]	6.18
NC(=O)c1nc(N2CCC3(CC2)Cc2ccccc2[C@H]3N)nc(N)c1-c1cccc(Cl)c1Cl (single isomer, unassigned) [Compound 118]	7.39
NC(=O)c1nc(N2CCC3(CC2)Oc2ncccc2C3N)nc(N)c1-c1cccc(Cl)c1Cl (single isomer, unassigned) [Compound 128]	8.22
NC(=O)c1nc(N2CCC3(CC2)Oc2ncccc2C3N)nc(N)c1-c1cccc(Cl)c1Cl (single isomer, unassigned) [Compound 129]	6.48
NC(=O)c1nc(N2CCC3(CC2)Oc2ncccc2[C@@H]3N)nc(N)c1-c1cccc(Cl)c1Cl (single isomer, unassigned) [Compound 130]	7.11
NC(=O)c1nc(N2CCC3(CC2)Oc2ncccc2[C@@H]3N)nc(N)c1-c1cccc(Cl)c1Cl (single isomer, unassigned) [Compound 131]	5.15
Cc1nc(N2CCC3(CCC[C@H]3N)C2)nc(C(N)=O)c1-c1cccc(Cl)c1Cl (stereo in doubt) [Compound 35, 2-((R)-6-Amino-2-aza-spiro[4.4]non-2-yl)-5-(2,3-dichloro-phenyl)-6-methyl-pyrimidine-4-carboxylic acid amide]	5.96
